Experimental data published in PubChem BioAssay (NCI).
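Test compounds were applied to cells in 96-well plates for 48 hours at 5 doses. TGI marks complete inhibition of growth.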

Legend:
Experiment in all cases: NCI tumour cell line growth inhibition, 48 h
K-562 leukemia = system: K-562 leukemia
SF-268 CNS = system: SF-268 CNS
COLO 205 colon = system: COLO 205 colon
OVCAR-3 ovarian = system: OVCAR-3 ovarian
SF-295 CNS = system: SF-295 CNS
NCI/ADR-RES ovarian = system: NCI/ADR-RES ovarian
M19-MEL melanoma = system: M19-MEL melanoma
A498 renal = system: A498 renal
CAKI-1 renal = system: CAKI-1 renal
SNB-78 CNS = system: SNB-78 CNS
KM20L2 colon = system: KM20L2 colon
MDA-MB-231 breast = system: MDA-MB-231 breast
A549 NSCLC = system: A549 NSCLC
SW-620 colon = system: SW-620 colon
EKVX NSCLC = system: EKVX NSCLC
786-0 renal = system: 786-0 renal
KM12 colon = system: KM12 colon
RPMI-8226 leukemia = system: RPMI-8226 leukemia
DMS 273 small cell lung = system: DMS 273 small cell lung
DU-145 prostate = system: DU-145 prostate
SF-539 CNS = system: SF-539 CNS
HOP-62 NSCLC = system: HOP-62 NSCLC
HCT-15 colon = system: HCT-15 colon
SK-MEL-28 melanoma = system: SK-MEL-28 melanoma
HCC-2998 colon = system: HCC-2998 colon
BT-549 breast = system: BT-549 breast
HL-60(TB) leukemia = system: HL-60(TB) leukemia
MALME-3M melanoma = system: MALME-3M melanoma
OVCAR-4 ovarian = system: OVCAR-4 ovarian
UACC-257 melanoma = system: UACC-257 melanoma
MDA-MB-435 = system: MDA-MB-435
PC-3 prostate = system: PC-3 prostate
OVCAR-8 ovarian = system: OVCAR-8 ovarian
NCI-H226 lung = system: NCI-H226 lung
IGROV1 ovarian = system: IGROV1 ovarian
SR leukemia = system: SR leukemia
U251 CNS = system: U251 CNS
LXFL 529 NSCLC = system: LXFL 529 NSCLC
LOX IMVI melanoma = system: LOX IMVI melanoma
HOP-92 NSCLC = system: HOP-92 NSCLC
OVCAR-5 ovarian = system: OVCAR-5 ovarian
SNB-75 CNS = system: SNB-75 CNS
MDA-N = system: MDA-N
ACHN renal = system: ACHN renal
TK-10 renal = system: TK-10 renal
SN12C renal = system: SN12C renal
UACC-62 melanoma = system: UACC-62 melanoma
NCI-H522 lung = system: NCI-H522 lung
SK-OV-3 ovarian = system: SK-OV-3 ovarian
MOLT-4 leukemia = system: MOLT-4 leukemia
DMS 114 small cell lung = system: DMS 114 small cell lung
CCRF-CEM leukemia = system: CCRF-CEM leukemia
SNB-19 CNS = system: SNB-19 CNS
HCT-116 colon = system: HCT-116 colon
RXF 393 renal = system: RXF 393 renal
MCF7 breast = system: MCF7 breast
NCI-H23 lung = system: NCI-H23 lung
UO-31 renal = system: UO-31 renal
T-47D breast = system: T-47D breast
SK-MEL-5 melanoma = system: SK-MEL-5 melanoma
HT29 colon = system: HT29 colon
SK-MEL-2 melanoma = system: SK-MEL-2 melanoma
NCI-H460 lung = system: NCI-H460 lung
M14 melanoma = system: M14 melanoma

Structure (SMILES): CC(C)Cn1cnc2c(Sc3c([N+](=O)[O-])ncn3C)nc(N)nc21
- TGI (K-562 leukemia): > 100 µM
- TGI (SF-268 CNS): > 100 µM
- TGI (COLO 205 colon): > 62.9 µM
- TGI (OVCAR-3 ovarian): > 57.4 µM
- TGI (SF-295 CNS): > 100 µM
- TGI (NCI/ADR-RES ovarian): > 100 µM
- TGI (M19-MEL melanoma): > 100 µM
- TGI (A498 renal): > 100 µM
- TGI (CAKI-1 renal): > 100 µM
- TGI (SNB-78 CNS): > 100 µM
- TGI (KM20L2 colon): > 100 µM
- TGI (MDA-MB-231 breast): > 100 µM
- TGI (A549 NSCLC): > 100 µM
- TGI (SW-620 colon): > 100 µM
- TGI (EKVX NSCLC): > 100 µM
- TGI (786-0 renal): > 100 µM
- TGI (KM12 colon): > 100 µM
- TGI (RPMI-8226 leukemia): > 100 µM
- TGI (DMS 273 small cell lung): > 100 µM
- TGI (DU-145 prostate): > 100 µM
- TGI (SF-539 CNS): > 100 µM
- TGI (HOP-62 NSCLC): > 100 µM
- TGI (HCT-15 colon): > 100 µM
- TGI (SK-MEL-28 melanoma): > 100 µM
- TGI (HCC-2998 colon): > 100 µM
- TGI (BT-549 breast): > 100 µM
- TGI (HL-60(TB) leukemia): > 100 µM
- TGI (MALME-3M melanoma): > 59.8 µM
- TGI (OVCAR-4 ovarian): > 100 µM
- TGI (UACC-257 melanoma): > 100 µM
- TGI (MDA-MB-435): > 100 µM
- TGI (PC-3 prostate): > 100 µM
- TGI (OVCAR-8 ovarian): > 100 µM
- TGI (NCI-H226 lung): > 100 µM
- TGI (IGROV1 ovarian): > 100 µM
- TGI (SR leukemia): > 100 µM
- TGI (U251 CNS): > 100 µM
- TGI (LXFL 529 NSCLC): > 100 µM
- TGI (LOX IMVI melanoma): > 100 µM
- TGI (HOP-92 NSCLC): 36.9 µM
- TGI (OVCAR-5 ovarian): > 100 µM
- TGI (SNB-75 CNS): > 100 µM
- TGI (MDA-N): > 100 µM
- TGI (ACHN renal): > 100 µM
- TGI (TK-10 renal): > 100 µM
- TGI (SN12C renal): > 100 µM
- TGI (UACC-62 melanoma): > 100 µM
- TGI (NCI-H522 lung): 89.1 µM
- TGI (SK-OV-3 ovarian): > 100 µM
- TGI (MOLT-4 leukemia): > 100 µM
- TGI (DMS 114 small cell lung): > 100 µM
- TGI (CCRF-CEM leukemia): > 100 µM
- TGI (SNB-19 CNS): > 100 µM
- TGI (HCT-116 colon): > 100 µM
- TGI (RXF 393 renal): > 100 µM
- TGI (MCF7 breast): > 100 µM
- TGI (NCI-H23 lung): > 100 µM
- TGI (UO-31 renal): > 75 µM
- TGI (T-47D breast): > 100 µM
- TGI (SK-MEL-5 melanoma): > 100 µM
- TGI (HT29 colon): > 100 µM
- TGI (SK-MEL-2 melanoma): 81.9 µM
- TGI (NCI-H460 lung): > 100 µM
- TGI (M14 melanoma): > 100 µM
